Test [1] has as its target Bile salt export pump (Homo sapiens, UniProt O95342). As to the kind of experiment: Inhibition of human BSEP overexpressed in Sf9 cell membrane vesicles assessed as uptake of [3H]-taurocholate in presence of ATP measured after 15 to 20 mins by membrane vesicle transport assay. It is filed as ADME, cell-based.
The target of test [2] is ATP-binding cassette sub-family C member 3 (Homo sapiens, UniProt O15438). As to the kind of experiment: Inhibition of human MRP3 overexpressed in Sf9 insect cell membrane vesicles assessed as uptake of [3H]-estradiol-17beta-D-glucuronide in presence of ATP and GSH measured after 10 mins by membrane vesicle transport assay. It is filed as ADME, cell-based.
Sequence of ATP-binding cassette sub-family C member 3 (O15438 whole entry): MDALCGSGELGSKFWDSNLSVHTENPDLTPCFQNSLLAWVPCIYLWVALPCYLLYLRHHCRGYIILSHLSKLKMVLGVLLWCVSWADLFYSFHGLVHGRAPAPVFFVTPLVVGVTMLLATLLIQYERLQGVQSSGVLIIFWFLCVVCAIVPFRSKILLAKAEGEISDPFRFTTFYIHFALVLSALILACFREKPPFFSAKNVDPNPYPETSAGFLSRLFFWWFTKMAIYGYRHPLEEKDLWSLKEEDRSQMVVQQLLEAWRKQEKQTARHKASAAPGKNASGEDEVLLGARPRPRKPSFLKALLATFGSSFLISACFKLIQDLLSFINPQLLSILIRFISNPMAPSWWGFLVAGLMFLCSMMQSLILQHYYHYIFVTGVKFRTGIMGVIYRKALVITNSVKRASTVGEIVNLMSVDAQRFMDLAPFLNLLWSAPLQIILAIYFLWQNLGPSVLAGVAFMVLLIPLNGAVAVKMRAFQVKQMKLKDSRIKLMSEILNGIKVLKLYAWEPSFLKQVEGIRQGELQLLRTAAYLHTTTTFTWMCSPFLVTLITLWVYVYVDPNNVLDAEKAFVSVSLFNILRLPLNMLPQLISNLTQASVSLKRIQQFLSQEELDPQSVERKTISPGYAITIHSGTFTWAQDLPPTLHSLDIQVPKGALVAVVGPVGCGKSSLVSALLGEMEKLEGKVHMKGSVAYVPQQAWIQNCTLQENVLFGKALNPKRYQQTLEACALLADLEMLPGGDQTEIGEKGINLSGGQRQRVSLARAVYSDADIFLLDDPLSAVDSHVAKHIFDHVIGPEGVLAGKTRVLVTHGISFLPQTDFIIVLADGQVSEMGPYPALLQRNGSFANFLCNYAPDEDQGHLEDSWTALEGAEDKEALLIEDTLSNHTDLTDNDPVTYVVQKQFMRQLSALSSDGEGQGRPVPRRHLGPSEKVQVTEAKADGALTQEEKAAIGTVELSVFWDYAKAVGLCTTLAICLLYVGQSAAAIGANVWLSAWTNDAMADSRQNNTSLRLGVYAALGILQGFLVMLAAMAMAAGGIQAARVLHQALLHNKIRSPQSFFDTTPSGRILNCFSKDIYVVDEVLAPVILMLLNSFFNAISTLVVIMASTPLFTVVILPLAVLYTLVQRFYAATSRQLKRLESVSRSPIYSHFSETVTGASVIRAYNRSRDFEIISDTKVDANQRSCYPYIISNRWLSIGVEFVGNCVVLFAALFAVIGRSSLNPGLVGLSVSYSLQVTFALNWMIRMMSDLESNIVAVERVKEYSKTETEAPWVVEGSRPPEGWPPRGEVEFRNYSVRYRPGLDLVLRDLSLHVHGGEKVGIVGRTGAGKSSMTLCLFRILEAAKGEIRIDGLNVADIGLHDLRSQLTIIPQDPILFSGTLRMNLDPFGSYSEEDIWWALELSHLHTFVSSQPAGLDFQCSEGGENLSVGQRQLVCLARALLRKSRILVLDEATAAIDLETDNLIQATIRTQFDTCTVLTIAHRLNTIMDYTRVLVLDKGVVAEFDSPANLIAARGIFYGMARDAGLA
For test [3], the target named is T1, ATP-binding cassette sub-family C member 4 (Homo sapiens, UniProt O15439).
T1 sequence (O15439 whole entry): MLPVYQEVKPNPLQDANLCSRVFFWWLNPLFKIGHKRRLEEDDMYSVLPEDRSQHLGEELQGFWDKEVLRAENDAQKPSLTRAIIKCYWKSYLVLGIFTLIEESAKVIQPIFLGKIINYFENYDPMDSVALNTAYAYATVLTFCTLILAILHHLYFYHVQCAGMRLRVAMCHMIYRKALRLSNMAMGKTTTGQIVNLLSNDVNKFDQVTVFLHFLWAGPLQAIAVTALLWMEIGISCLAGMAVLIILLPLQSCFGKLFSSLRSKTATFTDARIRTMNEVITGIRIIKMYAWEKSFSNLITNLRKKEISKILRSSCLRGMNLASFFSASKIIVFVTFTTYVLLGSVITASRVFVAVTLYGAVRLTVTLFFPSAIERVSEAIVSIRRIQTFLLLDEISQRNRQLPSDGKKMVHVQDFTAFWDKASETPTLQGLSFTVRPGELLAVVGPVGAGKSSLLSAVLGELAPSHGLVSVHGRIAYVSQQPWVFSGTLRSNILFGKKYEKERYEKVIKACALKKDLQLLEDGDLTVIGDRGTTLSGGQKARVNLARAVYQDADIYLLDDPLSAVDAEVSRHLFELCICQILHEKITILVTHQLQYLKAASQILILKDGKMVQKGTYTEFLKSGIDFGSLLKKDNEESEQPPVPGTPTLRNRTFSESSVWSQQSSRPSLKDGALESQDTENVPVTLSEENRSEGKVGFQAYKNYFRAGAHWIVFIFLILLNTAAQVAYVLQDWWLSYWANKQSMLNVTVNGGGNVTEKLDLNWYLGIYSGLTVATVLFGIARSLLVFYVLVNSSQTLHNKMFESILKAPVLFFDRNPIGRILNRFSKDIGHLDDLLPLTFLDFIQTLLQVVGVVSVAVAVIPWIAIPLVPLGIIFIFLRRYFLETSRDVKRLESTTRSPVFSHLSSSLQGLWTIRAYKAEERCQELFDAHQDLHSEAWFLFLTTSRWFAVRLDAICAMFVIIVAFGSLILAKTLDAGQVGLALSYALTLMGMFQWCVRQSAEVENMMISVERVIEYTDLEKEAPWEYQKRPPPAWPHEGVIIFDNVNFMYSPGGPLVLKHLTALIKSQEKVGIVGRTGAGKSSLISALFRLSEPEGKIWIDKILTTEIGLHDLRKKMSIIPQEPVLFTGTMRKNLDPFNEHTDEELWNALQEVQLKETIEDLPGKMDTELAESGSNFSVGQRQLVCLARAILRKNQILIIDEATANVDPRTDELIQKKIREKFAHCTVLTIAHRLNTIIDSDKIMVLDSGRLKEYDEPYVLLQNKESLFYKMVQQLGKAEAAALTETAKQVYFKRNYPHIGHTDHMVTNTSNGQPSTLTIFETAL
As to the kind of experiment: Inhibition of human MRP4 overexpressed in Sf9 cell membrane vesicles assessed as uptake of [3H]-estradiol-17beta-D-glucuronide in presence of ATP and GSH measured after 20 mins by membrane vesicle transport assay. It is filed as ADME, cell-based.

For test [4], the target named is ATP-binding cassette sub-family C member 2 (Homo sapiens, UniProt Q92887). As to the kind of experiment: Inhibition of human MRP2 overexpressed in Sf9 cell membrane vesicles assessed as uptake of [3H]-estradiol-17beta-D-glucuronide in presence of ATP and GSH measured after 20 mins by membrane vesicle transport assay.
Sequence of ATP-binding cassette sub-family C member 2 (Q92887 whole entry): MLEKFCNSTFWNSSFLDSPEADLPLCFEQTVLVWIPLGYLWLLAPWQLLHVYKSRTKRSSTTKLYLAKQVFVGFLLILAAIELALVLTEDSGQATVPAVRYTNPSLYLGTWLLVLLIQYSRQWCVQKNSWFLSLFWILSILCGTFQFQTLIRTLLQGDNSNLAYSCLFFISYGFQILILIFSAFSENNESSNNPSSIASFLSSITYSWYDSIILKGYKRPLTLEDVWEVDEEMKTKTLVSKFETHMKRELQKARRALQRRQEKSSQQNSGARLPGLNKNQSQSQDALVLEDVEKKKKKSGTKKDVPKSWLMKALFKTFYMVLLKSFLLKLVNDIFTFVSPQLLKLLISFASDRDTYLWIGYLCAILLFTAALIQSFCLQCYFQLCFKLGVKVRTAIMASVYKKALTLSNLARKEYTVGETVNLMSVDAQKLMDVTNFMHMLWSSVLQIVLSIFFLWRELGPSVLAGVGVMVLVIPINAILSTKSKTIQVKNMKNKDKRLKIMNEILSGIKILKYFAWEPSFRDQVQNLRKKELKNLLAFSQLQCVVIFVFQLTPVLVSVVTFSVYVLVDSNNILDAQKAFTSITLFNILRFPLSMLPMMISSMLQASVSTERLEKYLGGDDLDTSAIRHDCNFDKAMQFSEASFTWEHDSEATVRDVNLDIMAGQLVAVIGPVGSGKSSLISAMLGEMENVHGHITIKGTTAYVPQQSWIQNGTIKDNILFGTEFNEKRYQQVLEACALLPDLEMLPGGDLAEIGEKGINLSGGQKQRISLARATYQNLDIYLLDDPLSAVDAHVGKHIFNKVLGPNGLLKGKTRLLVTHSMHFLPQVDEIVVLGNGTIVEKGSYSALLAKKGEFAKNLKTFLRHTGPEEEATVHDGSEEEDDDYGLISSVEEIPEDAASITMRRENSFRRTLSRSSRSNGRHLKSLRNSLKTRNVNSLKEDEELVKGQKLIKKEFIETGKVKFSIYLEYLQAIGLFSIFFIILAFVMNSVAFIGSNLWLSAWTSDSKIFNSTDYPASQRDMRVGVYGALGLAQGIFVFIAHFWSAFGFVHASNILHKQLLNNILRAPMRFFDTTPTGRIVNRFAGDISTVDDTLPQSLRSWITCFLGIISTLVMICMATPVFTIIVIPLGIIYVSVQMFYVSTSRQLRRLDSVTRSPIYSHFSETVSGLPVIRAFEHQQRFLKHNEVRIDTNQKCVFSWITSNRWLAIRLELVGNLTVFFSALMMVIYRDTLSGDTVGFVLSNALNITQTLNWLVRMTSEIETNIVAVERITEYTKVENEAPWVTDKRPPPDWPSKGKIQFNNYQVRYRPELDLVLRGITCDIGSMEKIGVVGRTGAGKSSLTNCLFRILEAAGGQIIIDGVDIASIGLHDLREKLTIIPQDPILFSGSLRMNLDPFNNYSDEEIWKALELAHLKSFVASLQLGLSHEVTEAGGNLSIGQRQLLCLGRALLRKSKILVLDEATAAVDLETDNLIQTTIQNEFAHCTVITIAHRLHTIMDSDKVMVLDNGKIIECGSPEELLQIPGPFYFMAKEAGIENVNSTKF

Molecules are shown by their SMILES. Where only a bound is given, the exact number is not on record here.

A word on the IC50: it is the point on the concentration scale where inhibition reaches its midpoint.

Sequence of Bile salt export pump (O95342 whole entry): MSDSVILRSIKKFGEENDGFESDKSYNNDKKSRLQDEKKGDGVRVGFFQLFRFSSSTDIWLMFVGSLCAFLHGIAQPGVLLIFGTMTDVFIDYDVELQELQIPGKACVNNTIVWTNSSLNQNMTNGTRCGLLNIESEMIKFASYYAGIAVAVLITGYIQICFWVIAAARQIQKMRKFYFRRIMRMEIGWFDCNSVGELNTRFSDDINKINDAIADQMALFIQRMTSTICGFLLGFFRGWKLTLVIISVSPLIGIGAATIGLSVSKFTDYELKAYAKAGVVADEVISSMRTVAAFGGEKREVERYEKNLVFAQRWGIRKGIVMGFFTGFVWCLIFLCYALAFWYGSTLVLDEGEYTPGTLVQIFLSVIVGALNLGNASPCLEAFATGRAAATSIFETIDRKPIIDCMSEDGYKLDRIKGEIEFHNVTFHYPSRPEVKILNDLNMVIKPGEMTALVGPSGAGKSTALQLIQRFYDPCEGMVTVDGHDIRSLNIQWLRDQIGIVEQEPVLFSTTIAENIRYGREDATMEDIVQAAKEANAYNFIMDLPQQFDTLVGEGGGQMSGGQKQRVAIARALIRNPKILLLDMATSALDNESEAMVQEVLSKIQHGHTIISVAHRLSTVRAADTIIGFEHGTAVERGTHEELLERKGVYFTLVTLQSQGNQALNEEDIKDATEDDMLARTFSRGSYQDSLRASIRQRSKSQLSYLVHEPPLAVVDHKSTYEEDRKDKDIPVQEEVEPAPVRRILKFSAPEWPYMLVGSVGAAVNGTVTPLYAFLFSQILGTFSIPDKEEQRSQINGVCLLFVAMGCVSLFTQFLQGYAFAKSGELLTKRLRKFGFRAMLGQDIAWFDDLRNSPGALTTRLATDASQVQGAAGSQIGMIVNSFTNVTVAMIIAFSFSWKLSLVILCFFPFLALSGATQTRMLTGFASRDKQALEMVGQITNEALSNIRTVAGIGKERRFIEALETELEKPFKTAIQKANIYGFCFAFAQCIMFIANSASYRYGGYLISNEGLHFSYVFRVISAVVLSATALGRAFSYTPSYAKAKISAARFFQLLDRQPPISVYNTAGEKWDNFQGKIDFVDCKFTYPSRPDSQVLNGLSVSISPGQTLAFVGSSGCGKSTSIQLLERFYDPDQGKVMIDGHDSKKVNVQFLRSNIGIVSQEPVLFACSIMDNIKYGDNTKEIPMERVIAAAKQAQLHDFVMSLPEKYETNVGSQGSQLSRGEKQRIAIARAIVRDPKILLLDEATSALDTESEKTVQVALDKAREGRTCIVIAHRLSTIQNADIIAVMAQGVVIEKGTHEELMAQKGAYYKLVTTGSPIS

For the compound `C=CCCCCCCCCC(=O)O` [UNDECYLENIC ACID], the half-inhibitory concentration (IC50) is more than 133 µM in test [1], more than 133 µM in test [2], 63.9 µM in test [3] and more than 133 µM in test [4].
For the compound `CCOc1ccc(NC(C)=O)cc1` [PHENACETIN], the IC50 in test [1], in test [2], in test [3] and in test [4] was more than 133 µM throughout.
As for `NCC[C@H](O)C(=O)N[C@@H]1C[C@H](N)[C@@H](O[C@H]2O[C@H](CN)[C@@H](O)[C@H](O)[C@H]2O)[C@H](O)[C@H]1O[C@H]1O[C@H](CO)[C@@H](O)[C@H](N)[C@H]1O` [AMIKACIN], the IC50 in test [1], in test [2], in test [3] and in test [4] was more than 133 µM in each case.
Take `CN1CCN(C(=O)OC2c3nccnc3C(=O)N2c2ccc(Cl)cn2)CC1` (centres undefined) [ZOPICLONE]: the IC50 in test [1], in test [2], in test [3] and in test [4] was more than 133 µM in each case.
For `Nc1nc(O)c2ncn(COC(CO)CO)c2n1` [GANCICLOVIR], the IC50 in test [1], in test [2], in test [3] and in test [4] was more than 133 µM throughout.
For `Cc1cccc(Nc2cc(Cl)nc(SCC(=O)O)n2)c1C` [PIRINIXIC ACID], the IC50 in test [1] was 99 µM; in test [2] it was more than 133 µM; in test [3] it was 44.9 µM; in test [4], more than 133 µM.
For the compound `C=C1[C@H](CO)[C@@H](O)C[C@@H]1n1cnc2c(=O)[nH]c(N)nc21`, the concentration for half-maximal inhibition (IC50) in test [1], in test [2], in test [3] and in test [4] was more than 133 µM in each case.
Regarding `NC(=O)c1ncn([C@@H]2O[C@H](CO)[C@@H](O)[C@H]2O)c1O` [MIZORIBINE], the IC50 in test [1], in test [2], in test [3] and in test [4] was more than 133 µM in each case.
On to `O=P(O)(O)C(O)(Cn1ccnc1)P(=O)(O)O` [ZOLEDRONIC ACID], for which the IC50 in test [1], in test [2], in test [3] and in test [4] was more than 133 µM in each case.
Turning to `CS(=O)(=O)c1ccc([C@@H](O)[C@@H](CO)NC(=O)C(Cl)Cl)cc1` [THIAMPHENICOL], the IC50 in test [1], in test [2], in test [3] and in test [4] was more than 133 µM throughout.
Consider `C=C(C)[C@H]1Cc2c(ccc3c2O[C@@H]2COc4cc(OC)c(OC)cc4[C@@H]2C3=O)O1` [ROTENONE], for which the IC50 was 8 µM in test [1], more than 133 µM in test [2], more than 133 µM in test [3] and more than 133 µM in test [4].
For the compound `C=CC1=C(C(=O)O)N2C(=O)[C@@H](NC(=O)/C(=N\O)c3csc(N)n3)[C@H]2SC1`, the IC50 in test [1] was more than 133 µM; in test [2], more than 133 µM; in test [3], 11.6 µM; in test [4] it was more than 133 µM.
As for `COc1ccccc1N1CCN(CCCNc2cc(=O)n(C)c(=O)n2C)CC1`, the IC50 in test [1], in test [2], in test [3] and in test [4] was more than 133 µM in each case.
As to `CCOC(=O)O[C@]1(C(=O)OCCl)CC[C@H]2[C@@H]3CCC4=CC(=O)C=C[C@]4(C)[C@H]3[C@@H](O)C[C@@]21C` [LOTEPREDNOL ETABONATE], the IC50 is 40.4 µM in test [1], 15.5 µM in test [2], more than 133 µM in test [3] and more than 133 µM in test [4].
For `CC(C)c1ccc2oc3nc(N)c(C(=O)O)cc3c(=O)c2c1` [AMLEXANOX], the IC50 in test [1] is 104 µM; in test [2], more than 133 µM; in test [3] it was 2.2 µM; in test [4] it was more than 133 µM.
For the compound `O=C(NCCNCC(O)COc1ccc(O)cc1)N1CCOCC1` (centres undefined) [XAMOTEROL], the IC50 in test [1], in test [2], in test [3] and in test [4] was more than 133 µM throughout.
